In this experiment the target is HIV-1 protease (Human immunodeficiency virus type 1 group M subtype B, UniProt P04585). Put plainly: biochemical. On the procedure:
The HIV protease screening assay is based on fluorescently labeled substrate which can be resolved from nonlabeled cleavage product using special beads coated with streptavidin. The substrate is biotinylated at the amino terminal arginine and fluorescently labeled with fluorescein isothiocynate (FITC) at the carboxyl terminal lysine. This assay has been employed to detect novel, nonpeptidic inhibitors of HIV-1 protease. Substrate (20 μM of 0.2 μM), sample (10 μl of desired concentraion), and enzyme (10 μl of 0.1 μM) are added to a 96 well pandex plate. The assay is run in 0.1 M sodium acetate buffer at pH 5.5 in the presence of 1.0 M sodium chloride and 0.05% NP-40 with incubated in the dark for one hour at room temperature. Strepavidin coated polystyrene beads {40 μl of 0.1% (w/v)} are added and the plate is incubated in the dark for an additional half hour. The labeled cleavage product is separated from the unreacted substrate via filtration and is read on the Idexx screen machine. The data are analyzed by appropriate computer algorithms to ascertain percent inhibition values.

Setting [1] is: Table I, Dose 0.123 μM, read-out: Protease % Inhib.
Setting [2] is: Table I, Dose 0.370 μM, read-out: Protease % Inhib.
[3] abbreviates: Table I, Dose 1.100 μM, read-out: Protease % Inhib.
[4] abbreviates: Table I, Dose 3.300 μM, read-out: Protease % Inhib.
Where [5] appears, read: Table I, Dose 10.000 μM, read-out: Protease % Inhib.
Where [6] appears, read: Table I, Dose 30.000 μM, read-out: Protease % Inhib.
The mark [7] stands for this setting: Table II, enzyme HIV-1, DOSE 0.123 (unit not given).
[8] abbreviates: Table II, enzyme HIV-1, DOSE 0.370 (unit not given).
Setting [9] is: Table II, enzyme HIV-1, DOSE 1.100 (unit not given).
[10] abbreviates: Table II, enzyme HIV-1, DOSE 3.300 (unit not given).
The mark [11] stands for this setting: Table II, enzyme HIV-1, DOSE 10.000 (unit not given).
The mark [12] stands for this setting: Table II, enzyme HIV-1, DOSE 30.000 (unit not given).

This note sets out measurements from patent US6169181A, “Compounds useful to treat retroviral infections” (Pharmacia & Upjohn Company, priority 1998, dated 2001).

Read-outs that look alike come from different tables or passages of the source.

Regarding `CCCC1(CCc2ccccc2)CC(O)=C(C(CC)c2cccc(NS(=O)(=O)c3ccc(C#N)cn3)c2)C(=O)O1` (stereo not drawn) [Example 263, N-[3-{1-(4-Hydroxy-5,6-dihydro-2-oxo-6-phenethyl-6-propyl-2H-pyran-3-yl)propyl}phenyl]-5-cyanopyridine-2-sulfonamide], under “read-out: Protease % Inhib”, the inhibition at 0.123 µM came out at 98.1%, the inhibition at 0.37 µM worked out at 99%, the inhibition at 1.1 µM was determined as 99.1% and the inhibition at 3.3 µM is 98.1%. For the same compound, where the note is “read-out: Protease % Inhib”, the inhibition at 10 µM was found to be 96.2% and the inhibition at 30 µM is 88.2%.
Take `O=c1oc(C(CC2CC2)CC2CC2)cc(O)c1C(c1cccc(NS(=O)(=O)c2cccc3cccnc23)c1)C1CC1` (stereo not drawn) [Example 96, N-(3-{Cyclopropyl-[6-(2-cyclopropyl-1-cyclopropylmethyl-ethyl)-4-hydroxy-2-oxo-2H-pyran-3-yl]-methyl}-phenyl)-8-quinolinesulfonamide]: under setting [1], the inhibition at 0.123 µM worked out at 94.2%. In addition, the inhibition at 0.37 µM under setting [2] is 119%. In addition, the inhibition at 1.1 µM under setting [3] was 122%. Further, under setting [4], the inhibition at 3.3 µM was found to be 111%. Besides, the inhibition at 10 µM under setting [5] came to 111%. The inhibition at 30 µM under setting [6] is 109%.
Consider `CCCC1(CCc2ccc(F)cc2)CC(O)=C(C(c2cccc(NS(=O)(=O)c3ccc(C#N)cn3)c2)C(C)(C)C)C(=O)O1` (stereo not drawn) [Example 253, N-[3-{1-(4-Hydroxy-5,6-dihydro-2-oxo-6-(2-(4-fluorophenyl)ethyl)-6-propyl-2H-pyran-3-yl)-2,2-dimethylpropyl}phenyl]-5-cyanopyridine-2-sulfonamide], for which the inhibition at 0.123 µM under setting [1] was determined as 94%. For the same compound, under setting [2], the inhibition at 0.37 µM came to 96.8%. In addition, the inhibition at 1.1 µM under setting [3] was 97.6%. Moreover, the inhibition at 3.3 µM under setting [4] was found to be 95.9%. The inhibition at 10 µM under setting [5] turned out to be 97%. For the same compound, under setting [6], the inhibition at 30 µM amounted to 98.5%.
Regarding `CCCC1(CCc2ccccc2)CC(O)=C(C(c2cccc(NS(=O)(=O)c3ccc(C#N)cn3)c2)C2CC2)C(=O)O1` (stereo not drawn) [Example 311], the “PROTEASE % INHIB.” value is 86.51% under setting [7]; 91.49% under setting [8]; 101.8% under setting [9]; 96.5% under setting [10]; 93.77% under setting [11]; 77.63% under setting [12].
Consider `CN(c1cccc(C(c2c(O)c3c(oc2=O)CCCCCC3)C2CC2)c1)S(=O)(=O)c1ccccc1` (stereo not drawn) [Example 194, N-methyl-N-[3-[cyclopropyl(5,6,7,8,9,10-hexahydro-4-hydroxy-2-oxo-2H-cycloocta[b]pyran-3-yl)methyl]phenyl]-benzenesulfonamide], for which the inhibition at 0.123 µM under setting [1] was below 10%. For the same compound, under setting [2], the inhibition at 0.37 µM came out at 20%. The inhibition at 1.1 µM under setting [3] came to 53.9%. Further, the inhibition at 3.3 µM under setting [4] was found to be 75.2%. For the same compound, the inhibition at 10 µM under setting [5] came out at 85.5%. The inhibition at 30 µM under setting [6] came to 85.2%.
Regarding `CCC(CCN=[N+]=[N-])c1cc(O)c(C(c2cccc(NS(=O)(=O)c3cn(C)cn3)c2)C2CC2)c(=O)o1` (stereo not drawn) [Example 109, N-(3-{[6-(3-Azido-1-ethyl-propyl)-4-hydroxy-2-oxo-2H-pyran-3-yl]-cyclopropyl-methyl}-phenyl)-1-methyl-1H-imidazole-4-sulfonamide], the inhibition at 0.123 µM under setting [1] is 105%. The inhibition at 0.37 µM under setting [2] came to 99.3%. Moreover, under setting [3], the inhibition at 1.1 µM was 104%. Also, the inhibition at 3.3 µM under setting [4] was 101%. Under setting [5], the inhibition at 10 µM is 109%. For the same compound, under setting [6], the inhibition at 30 µM came out at 109%.
Take `CCC(C1=C(O)CC(CC(C)C)(CC(C)C)OC1=O)c1cccc(NS(=O)(=O)c2ccc(C#N)cn2)c1` (racemic) [Example 304, 5-Cyano-N-[3-(1-[5,6-dihydro-6,6-diisobutyl-4-hydroxy-2-oxo-2H-pyran-3-yl]propyl)phenyl]-2-pyridinesulfonamide]: the “PROTEASE % INHIB.” value runs as follows: under setting [7], 92.01%; under setting [8], 93.28%; under setting [9], 96.47%; under setting [10], 100.47%; under setting [11], 107.61%; under setting [12], 79.68%.
In the case of `CCCC1(CCC)CC(O)=C(C(CC)c2cccc(NS(=O)(=O)c3ccc(C#N)cn3)c2)C(=O)O1` (stereo not drawn) [Example 262], the inhibition at 0.123 µM under setting [1] came out at 91.8%. Besides, under setting [2], the inhibition at 0.37 µM was 96.6%. Besides, the inhibition at 1.1 µM under setting [3] worked out at 97.1%. The inhibition at 3.3 µM under setting [4] worked out at 95.4%. Moreover, the inhibition at 10 µM under setting [5] turned out to be 94.2%. Besides, under setting [6], the inhibition at 30 µM came to 89.2%.
Regarding `CCCCCC1(CCCCC)CC(O)=C(C(CC)c2cccc(NS(=O)(=O)c3cn(C)cn3)c2)C(=O)O1` (stereo not drawn) [Example 63, N-[3-[1-(4-Hydroxy-2-oxo-6,6-dipentyl-5,6-dihydro-2H-pyran-3-yl)-propyl]-phenyl]-1-methyl-1H-imidazole-4-sulfonamide], where the note is “read-out: Protease % Inhib”, the inhibition at 0.123 µM came out at 68.9%, the inhibition at 0.37 µM was determined as 79.6%, the inhibition at 1.1 µM came to 88.6% and the inhibition at 3.3 µM was determined as 87.4%. Besides, under “read-out: Protease % Inhib”, the inhibition at 10 µM was found to be 83.6% and the inhibition at 30 µM was 78.8%.
With `COCCOCCCc1cc(O)c(C(c2cccc(NS(=O)(=O)c3cn(C)cn3)c2)C2CC2)c(=O)o1` (stereo not drawn) [Example 104, N-(3-{Cyclopropyl-[4-hydroxy-6-(3-{2-methoxy-ethoxy}-propyl)-2-oxo-2H-pyran-3-yl]-methyl}-phenyl)-1-methyl-1H-imidazole-4-sulfonamide], the inhibition at 0.123 µM under setting [1] is below 10%. Further, the inhibition at 0.37 µM under setting [2] turned out to be 61.7%. Further, the inhibition at 1.1 µM under setting [3] amounted to 81.8%. Further, the inhibition at 3.3 µM under setting [4] turned out to be 93.3%. Besides, the inhibition at 10 µM under setting [5] is 96.4%. For the same compound, under setting [6], the inhibition at 30 µM was determined as 109%.
For the compound `CC[C@H](Cc1ccccc1)c1cc(O)c(C(c2cccc(NS(=O)(=O)c3ccc(C#N)cc3)c2)C2CC2)c(=O)o1` (single isomer, unassigned) [Example 149, N-(3-(R or S)-{Cyclopropyl-[6-(1-(R)-ethylphenethyl)-4-hydroxy-2-oxo-2H-pyran-3-yl]-methyl}-phenyl)-4-cyanobenzenesulfonamide], the “PROTEASE % INHIB.” value runs as follows: (Table I, Dose 0.123 μM) 80.51%; (Table I, Dose 0.370 μM) 87.52%; (Table I, Dose 1.100 μM) 96.32%; (Table I, Dose 3.300 μM) 92.86%; (Table I, Dose 10.000 μM) 97.12%; (Table I, Dose 30.000 μM) 95.99%.
As for `CCC(CC1CCOCC1)c1cc(O)c(C(c2cccc(NS(=O)(=O)c3cn(C)cn3)c2)C2CC2)c(=O)o1` (stereo not drawn) [Example 135, N-(3-{Cyclopropyl-[6-(1-(tetrahydropyran-4-ylmethyl)-propyl)-4-hydroxy-2-oxo-2H-pyran-3-yl]-methyl}-phenyl)-1-methyl-1H-imidazole-4-sulfonamide], the inhibition at 0.123 µM under setting [1] was 33.2%. Moreover, the inhibition at 0.37 µM under setting [2] worked out at 84.5%. For the same compound, under setting [3], the inhibition at 1.1 µM came to 99.1%. The inhibition at 3.3 µM under setting [4] stood at 96.9%. For the same compound, under setting [5], the inhibition at 10 µM was determined as 101%. For the same compound, the inhibition at 30.9 µM (read-out: Protease % Inhib) was 102%.
On to `CCCCCC1(CCCCC)CC(O)=C(C(CC)c2cccc(NS(=O)(=O)c3ccc(C#N)cc3)c2)C(=O)O1` (stereo not drawn) [Example 64, 4-Cyano-N-[3-[1-(4-Hydroxy-2-oxo-6,6-dipentyl-5,6-dihydro-2H-pyran-3-yl)-propyl]-phenyl]-benzenesulfonamide], for which the inhibition at 0.123 µM under setting [1] came out at 27.9%. Moreover, the inhibition at 0.37 µM under setting [2] was 50.8%. Besides, under setting [3], the inhibition at 1.1 µM turned out to be 75.6%. Further, the inhibition at 3.3 µM under setting [4] turned out to be 80.9%. Also, the inhibition at 10 µM under setting [5] worked out at 82%. For the same compound, the inhibition at 30 µM under setting [6] was found to be 84.4%.
On to `CCC(CCOCCOC)c1cc(O)c(C(c2cccc(NS(=O)(=O)c3cn(C)cn3)c2)C2CC2)c(=O)o1` (stereo not drawn) [Example 105, N-(3-{Cyclopropyl-[6-(1-ethyl-3-{2-methoxy-ethoxy}-propyl)-4-hydroxy-2-oxo-2H-pyran-3-yl]-methyl}-phenyl)-1-methyl-1H-imidazole-4-sulfonamide], for which the inhibition at 0.123 µM under setting [1] was determined as 101%. The inhibition at 0.37 µM under setting [2] was 115%. Also, the inhibition at 1.1 µM under setting [3] was 107%. For the same compound, under setting [4], the inhibition at 3.3 µM is 111%. In addition, the inhibition at 10 µM under setting [5] was found to be 111%. Further, under setting [6], the inhibition at 30 µM is 111%.
Regarding `N#Cc1ccc(S(=O)(=O)Nc2cccc(C(c3c(O)cc(C(CC4CC4)CC4CC4)oc3=O)C3CC3)c2)cc1` (stereo not drawn) [Example 95, 4-Cyano-N-(3-{cyclopropyl-[6-(2-cyclopropyl-1-cyclopropylmethyl-ethyl)-4-hydroxy-2-oxo-2H-pyran-3-yl]-methyl}-phenyl)-benzenesulfonamide], the inhibition at 0.123 µM under setting [1] came out at 91.2%. Besides, the inhibition at 0.37 µM under setting [2] came out at 102%. The inhibition at 1.1 µM under setting [3] is 106%. For the same compound, the inhibition at 3.3 µM under setting [4] turned out to be 113%. The inhibition at 10 µM under setting [5] was 110%. Further, under setting [6], the inhibition at 30 µM amounted to 113%.
